Measured values published in ChEMBL document CHEMBL1155344, “Synthesis of some new 1,2,4-triazoles starting from isonicotinic acid hydrazide and evaluation of their antimicrobial activities” (2009).
Activity calls are given as the source filed them. No cut-off for these calls is given here.

How the values were obtained:
Escherichia coli [1] = assay: Antimicrobial activity against Escherichia coli ATCC 25922 after 18 hrs by well diffusion method; assay type: functional
[2] = test system: Yersinia pseudotuberculosis; assay: Antimicrobial activity against Yersinia pseudotuberculosis ATCC 911after 18 hrs by well diffusion method; assay type: functional
Enterococcus faecalis [3] = assay: Antimicrobial activity against Enterococcus faecalis ATCC 29212 after 18 hrs by well diffusion method; assay type: functional
Candida albicans [4] = assay: Antimicrobial activity against Candida albicans ATCC 60193 after 18 hrs by well diffusion method; assay type: functional
Pseudomonas aeruginosa [5] = assay: Antimicrobial activity against Pseudomonas aeruginosa ATCC 27853 after 18 hrs by well diffusion method; assay type: functional
Staphylococcus aureus [6] = assay: Antimicrobial activity against Staphylococcus aureus ATCC 25923 after 18 hrs by well diffusion method; assay type: functional
Bacillus cereus [7] = assay: Antimicrobial activity against Bacillus cereus 702 Roma after 18 hrs by well diffusion method; assay type: functional
Candida tropicalis [8] = assay: Antimicrobial activity against Candida tropicalis ATCC 13803 after 18 hrs by well diffusion method; assay type: functional
Candida tropicalis [9] = assay: Antimicrobial activity against Candida tropicalis ATCC 13803 at 5 ug after 18 hrs by well diffusion method; assay type: functional; conditions: ATCC 13803, 18 h, read-out: IZ
Bacillus cereus [10] = assay: Antimicrobial activity against Bacillus cereus 702 Roma at 5 ug after 18 hrs by well diffusion method; assay type: functional, organism-based
Enterococcus faecalis [11] = assay: Antimicrobial activity against Enterococcus faecalis ATCC 29212 at 5 ug after 18 hrs by well diffusion method; assay type: functional, organism-based
[12] = test system: Yersinia pseudotuberculosis; assay: Antimicrobial activity against Yersinia pseudotuberculosis ATCC 911 at 5 ug after 18 hrs by well diffusion method; assay type: functional, organism-based
Staphylococcus aureus [13] = assay: Antimicrobial activity against Staphylococcus aureus ATCC 25923 at 5 ug after 18 hrs by well diffusion method; assay type: functional, organism-based
Pseudomonas aeruginosa [14] = assay: Antimicrobial activity against Pseudomonas aeruginosa ATCC 27853 at 5 ug after 18 hrs by well diffusion method; assay type: functional, organism-based
Candida albicans [15] = assay: Antimicrobial activity against Candida albicans ATCC 60193 at 5 ug after 18 hrs by well diffusion method; assay type: functional; conditions: ATCC 60193, 18 h, read-out: IZ
Escherichia coli [16] = assay: Antimicrobial activity against Escherichia coli ATCC 25922 at 5 ug after 18 hrs by well diffusion method; assay type: functional, organism-based
[17] = test system: Yersinia pseudotuberculosis; assay: Antimicrobial activity against Yersinia pseudotuberculosis ATCC 911 at 10 ug after 18 hrs by well diffusion method; assay type: functional; conditions: ATCC 911, 18 h, read-out: IZ
Bacillus cereus [18] = assay: Antimicrobial activity against Bacillus cereus 702 Roma at 10 ug after 18 hrs by well diffusion method; assay type: functional; conditions: read-out: IZ
Candida albicans [19] = assay: Antimicrobial activity against Candida albicans ATCC 60193 at 10 ug after 18 hrs by well diffusion method; assay type: functional, organism-based
Enterococcus faecalis [20] = assay: Antimicrobial activity against Enterococcus faecalis ATCC 29212 at 10 ug after 18 hrs by well diffusion method; assay type: functional; conditions: ATCC 29212, 18 h, read-out: IZ
Escherichia coli [21] = assay: Antimicrobial activity against Escherichia coli ATCC 25922 at 10 ug after 18 hrs by well diffusion method; assay type: functional; conditions: ATCC 25922, 18 h, read-out: IZ
Staphylococcus aureus [22] = assay: Antimicrobial activity against Staphylococcus aureus ATCC 25923 at 10 ug after 18 hrs by well diffusion method; assay type: functional; conditions: ATCC 25923, 18 h, read-out: IZ
Pseudomonas aeruginosa [23] = assay: Antimicrobial activity against Pseudomonas aeruginosa ATCC 27853 at 10 ug after 18 hrs by well diffusion method; assay type: functional; conditions: ATCC 27853, 18 h, read-out: IZ
Candida tropicalis [24] = assay: Antimicrobial activity against Candida tropicalis ATCC 13803 at 10 ug after 18 hrs by well diffusion method; assay type: functional, organism-based

Row | Compound | inhibition zone (IZ) (Escherichia coli [1]) | inhibition zone (IZ) [2] | inhibition zone (IZ) (Enterococcus faecalis [3]) | inhibition zone (IZ) (Candida albicans [4]) | inhibition zone (IZ) (Pseudomonas aeruginosa [5]) | inhibition zone (IZ) (Staphylococcus aureus [6]) | inhibition zone (IZ) (Bacillus cereus [7]) | inhibition zone (IZ) (Candida tropicalis [8]) | other results
1 | Nn1c(-c2ccncc2)nn(CN2CCOCC2)c1=S | 20 mm | 13 mm | inactive | inactive | inactive | inactive | inactive | inactive | 
2 | OC(Cn1cncn1)(Cn1cncn1)c1ccc(F)cc1F [FLUCONAZOLE] |  |  |  |  |  |  |  |  | zone of inhibition at 5 µg/disc (Candida tropicalis [9]): 25 mm; inhibition zone (IZ) (Bacillus cereus [10]): inactive; inhibition zone (IZ) (Enterococcus faecalis [11]): inactive; inhibition zone (IZ) [12]: inactive; inhibition zone (IZ) (Staphylococcus aureus [13]): inactive; inhibition zone (IZ) (Pseudomonas aeruginosa [14]): inactive; zone of inhibition at 5 µg/disc (Candida albicans [15]): 25 mm; inhibition zone (IZ) (Escherichia coli [16]): inactive
3 | CCSc1nnc(-c2ccncc2)n1N | 30 mm |  | 25 mm | 8 mm | 25 mm | 25 mm | 20 mm | 8 mm | 
4 | Nn1c(-c2ccncc2)nn(CNCCN2CCOCC2)c1=S | inactive | inactive | inactive | inactive | inactive | inactive | inactive | inactive | 
5 | S=c1[nH]nc(-c2ccncc2)n1/N=C/c1c[nH]c2ccccc12 | inactive | inactive | inactive | inactive | inactive | inactive | inactive | inactive | 
6 | CC1(C)S[C@@H]2[C@H](NC(=O)[C@H](N)c3ccccc3)C(=O)N2[C@H]1C(=O)O [AMPICILLIN] |  |  |  |  |  |  |  |  | zone of inhibition at 10 µg/disc [17]: 18 mm; zone of inhibition at 10 µg/disc (Bacillus cereus [18]): 15 mm; inhibition zone (IZ) (Candida albicans [19]): inactive; zone of inhibition at 10 µg/disc (Enterococcus faecalis [20]): 10 mm; zone of inhibition at 10 µg/disc (Escherichia coli [21]): 10 mm; zone of inhibition at 10 µg/disc (Staphylococcus aureus [22]): 35 mm; zone of inhibition at 10 µg/disc (Pseudomonas aeruginosa [23]): 18 mm; inhibition zone (IZ) (Candida tropicalis [24]): inactive
7 | Nn1c(S)nnc1-c1ccncc1 | 34 mm | 30 mm | 24 mm | inactive | 42 mm | 34 mm | 20 mm | inactive | 
8 | CN1CCN(Cn2nc(-c3ccncc3)oc2=S)CC1 | 23 mm | 15 mm | 17 mm | inactive | 28 mm | 17 mm | 17 mm | inactive | 
9 | CN1CCN(Cn2nc(-c3ccncc3)n(N)c2=S)CC1 | 30 mm | 24 mm | 25 mm | inactive | 35 mm | 28 mm | 22 mm | inactive | 
10 | S=c1[nH]nc(-c2ccncc2)o1 | inactive | inactive | inactive | 25 mm | inactive | 10 mm | inactive | 30 mm | 
11 | CCSc1nnc(-c2ccncc2)o1 | 30 mm | 22 mm | 25 mm | 7 mm | 25 mm | 25 mm | 18 mm | 7 mm | 
12 | CN1CCN(Cn2nc(-c3ccncc3)n(/N=C/c3ccc(F)cc3)c2=S)CC1 | inactive | inactive | inactive | inactive | inactive | inactive | inactive | inactive | 
13 | Fc1ccc(/C=N/n2c(-c3ccncc3)n[nH]c2=S)cc1 | inactive | inactive | inactive | 8 mm | inactive | inactive | 7 mm | 8 mm | 
14 | S=c1oc(-c2ccncc2)nn1CNCCN1CCOCC1 | 13 mm | 13 mm | 15 mm | inactive | 13 mm | 14 mm | 14 mm | inactive | 
